Data set [1] can be described thus: in vivo. The settings on record: BALB/c, mouse, iv, 3 mg/kg.
The nature of data set [2]: in vivo. The settings on record: BALB/c, mouse, iv, 3 mg/kg. The source holds these as a separate data set.
Data set [3] can be described thus: in vivo. The settings on record: BALB/c, mouse, po, 10 mg/kg.

What is called Vd is a proportionality between amount in the body and measured concentration, not a real space. For orientation: clearance means a measure of how efficiently the substance is removed, as volume per time. The term bioavailability denotes the share of a dose that reaches the circulation, judged against a reference dose that is usually intravenous. A low value points to poor availability. As to `CC(C)CN1C[C@H](Cc2ccc(Cl)cc2)N(C2CCN(c3ccccn3)CC2)C[C@@H]1C`, the Vd in data set [1] was 9.25 L/kg. In addition, the clearance in data set [2] stood at 69 mL/min/kg. For the same compound, in data set [3], the bioavailability stood at 5.6%.

For `Cc1ccnc(N2CCC(N3C[C@H](C)OC[C@@H]3Cc3ccc(Cl)cc3)CC2)c1`, in data set [1], the Vd was determined as 2.5 L/kg. The compound further showed a clearance in data set [2] of 58 mL/min/kg.

These data come from ChEMBL document CHEMBL5528077, “Structure-Based Discovery of High-Affinity Small Molecule Ligands and Development of Tool Probes to Study the Role of Chitinase-3-Like Protein 1” (J Med Chem, 2024).
